Blank lines part the entries; values can stand above or below the compound they belong to.
Tests used:
[1] = tested on: human glioblastoma cell line U87; assay: MTT antiproliferative assay in U87 cells; type: cell-based; settings: for inhibition at 10 µM: read-out: U87 (% Inhib. @ 10 µM); for IC50: mean ± SD (n = 3); for fold decrease in anti-glioma activity: relative to 14a–14c
Procedure: (§1) U87, Hela, MCF-7, and HHL-5 cells were provided by Chinese Academy of Medical Sciences (Beijing, China). The cancer cells were cultured in DMEM media containing 10% heat-inactivated fetal calf serum. All cells were incubated at 37 °C in a 5% CO2 humidified atmosphere and harvested in the exponential growth phase for assays.
(§2) Cells were seeded in a 96-well plate and treated with the test substance at the desired concentration for 72 h. In cytotoxicity experiments, cells were treated with 10 µM of the test compound or 1 µM XI-011 and doxorubicin as positive controls. DMSO (1%) was used as a negative control. In the IC50 analysis, doxorubicin, XI-011, 13d, 13e, 14a, 14b, and, 14n were applied to HHL-5 at 50, 25, 10, 5, 2.5, 1.25, 0.625, 0.3125, and 0.15625 µM and U87 cells at 10, 7.5, 5, […], 1.25, 0.625, 0.3125, and 0.15625 µM, whereas 30, 10, 3, 0.5, and 0.1 µM were applied to Hela and MCF-7 cells. Treated cells were incubated with an MTT solution for 2 h and then with DMSO to dissolve the crystals. Absorbance was determined at 570 nm using a microplate reader (BioTek, Seattle, DC, USA). IC50 values were calculated using the Hill model in GraphPad Prism 8.0.2 software.

[2] = tested on: human breast cancer cell line MCF-7; assay: MTT antiproliferative assay in MCF-7 cells; type: cell-based; settings: MCF7, 72 h, mean ± SD (n = 3)
Procedure: as §1, §2

[3] = tested on: HHL-5 human normal cell line; assay: MTT cytotoxicity assay in normal HHL-5 cells; type: cell-based; settings: for IC50: Homo sapiens, HHL-5, normal cell line, 72 h, MTT, mean ± SD (n = 3)
Procedure: as §1, §2

[4] = tested on: human cervical cancer cell line HeLa; assay: MTT antiproliferative assay in HeLa cells; type: cell-based; settings: for IC50: Homo sapiens, 72 h, MTT, mean ± SD (n = 3)
Procedure: as §1, §2

U87 cells [5] = assay: Flow cytometric apoptosis analysis in U87 cells; type: cell-based, human; settings: 24 h
Procedure: Reducing MDM4 expression restores the p53 function and increases apoptotic cells. The apoptotic effects of compound 13e were determined in U87 cells by flow cytometry. […] 13e induced 21% apoptosis at 1 µM, which was slightly lower than the 23% apoptosis induced by XI-011. At 2 µM 13e, apoptosis was up to 25.9%. […] The mechanism by which 13e induces apoptosis in U87 cells may be related to its ability to downregulate MDM4 expression and stabilize p53 protein.

MDM4 [6] = assay: Western blot of MDM4 expression in U87 cells; type: cell-based, human; settings: U87, 24 h, 0.5, 1 and 2 µM
Procedure: (§3) Protein levels in U87 cells treated with test compound 13e (0.5, 1, and 2 µM) for 24 h were measured by Western blot analysis as described previously. Briefly, after 13e treatment, cells were lysed in RIPA buffer. Proteins were separated by 8% SDS-PAGE and transferred to a PVDF membrane (Millipore, Billerica, MA, USA). The membrane was incubated with an anti-MDM4 antibody (A300-287A, Bethyl Laboratories, Montgomery, TX, USA), anti-p53 antibody (sc-126, Santa Cruz Biotechnology, Inc., Dallas, TX, USA), or anti-GAPDH antibody (AG019, Beyotime, Shanghai, China) followed by an HRP-linked secondary antibody (A0216, Beyotime) for 2 h. ECL reagent was used for chemiluminescent development. Densitometric analysis of protein bands was performed using ImageJ V.1.8.0 software.

U87 cells [7] = assay: Flow cytometric cell cycle analysis in U87 cells; type: cell-based, human; settings: U87, 24 h, 0.5, 1 and 2 µM
Procedure: Cells were cultured for 24 h in a 6-well plate, and then the test compound (0.5, 1, and 2 µM) was added to the culture medium. After treatment for 24 h, the cells were harvested and fixed at 4 °C overnight in an ethanol solution (80%). The cells were washed with PBS and stained with a PI solution ([…] in PBS). After 30 min, the cells were subjected to flow cytometry (C6; BD, Franklin Lakes, NJ, USA). The recorded cell fluorescence was used to analyze the cell cycle distribution.

p53 = assay: Western blot of p53 expression in U87 cells; type: cell-based, human; settings: U87, 24 h, 0.5, 1 and 2 µM
Procedure: as §3

MDM4 [8] = settings: Figure 1, representative MDM4 inhibitors; reference not given; cited from earlier work
[9] = Homo sapiens, U-87 MG, 72 h, 10 µM, 72 h, MTT, triplicates
[10] = Homo sapiens, U-87 MG, 72 h, MTT

SMILES: Cc1ccc(CSC(=N)N)c2ccccc12 [12a]
- inhibition at 10 µM [1, 9]: 15.2%

SMILES: N=C(N)SCc1cccc2ccccc12 [12b]
- inhibition at 10 µM [1, 9]: 9%

SMILES: Cc1ccc(CSC(=N)N)cc1 [12c]
- inhibition at 10 µM [1, 9]: 11.8%

SMILES: N=C(N)SCc1ccc([N+](=O)[O-])cc1 [12d]
- inhibition at 10 µM [1, 9]: 14.8%

SMILES: N=C(N)SCc1ccc2ccccc2c1 [12e]
- inhibition at 10 µM [1, 9]: 1.5%

SMILES: Cc1ccc(CSC(=N)NN)c2ccccc12 [12f]
- inhibition at 10 µM [1, 9]: 13.1%

SMILES: N=C(NN)SCc1cccc2ccccc12 [12g]
- inhibition at 10 µM [1, 9]: 14.5%

SMILES: CNC(=N)SCc1ccc(C)c2ccccc12 [12h]
- inhibition at 10 µM [1, 9]: 9.9%

SMILES: CC(=O)NC(=N)SCc1ccc(C)c2ccccc12 [12i]
- inhibition at 10 µM [1, 9]: 2.7%

SMILES: CC(=O)NC(=N)SCc1ccc(C)cc1 [12j]
- inhibition at 10 µM [1, 9]: 6.8%

SMILES: N=C(NN)SCc1ccc2ccccc2n1 [12k]
- inhibition at 10 µM [1, 9]: 10.7%

SMILES: CNC(=N)SCc1ccc2ccccc2n1 [12l]
- inhibition at 10 µM [1, 9]: 11.3%

SMILES: Cc1c2ccccc2c(CSC(=N)NN)c2ccccc12 [13a]
- inhibition at 10 µM [1, 9]: 57.9%
- fold more potency than 12f ([1]; U87 inhibition rate at 10 µM): approximately 4 fold

SMILES: CC(=O)NC(=N)SCc1c2ccccc2c(C)c2ccccc12 [13b]
- inhibition at 10 µM [1, 9]: 19.3%

SMILES: Cc1c2ccccc2c(CSC(=N)NC(=N)N)c2ccccc12 [13c]
- inhibition at 10 µM [1, 9]: 35.4%

- IC50 ([1]; 72 h, MTT): 1620 ± 20 nM
- IC50 [1, 10]: < 2000 nM
- IC50 [2]: 4740 ± 200 nM
- IC50 [4]: 5660 ± 290 nM
SMILES: CNC(=N)SCc1c2ccccc2c(C)c2ccccc12 [13d]
- inhibition at 10 µM [1, 9]: 93.3%
- IC50 [3]: 850 ± 100 nM

- IC50 [2]: 970 ± 110 nM
- IC50 [4]: 1630 ± 250 nM
SMILES: Cc1c2ccccc2c(CSC(=N)N(C)N)c2ccccc12 [13e]
- apoptosis (U87 cells [5]; U87, 1 µM): 21%
- apoptosis (U87 cells [5]; U87, 2 µM): 25.9%
- MDM4 expression (MDM4 [6]): dose-dependent suppression of MDM4 expression
- cell cycle effect (U87 cells [7]): arrested U87 cells in G2/M phase
- inhibition at 10 µM [1, 9]: 88.6%
- p53 protein expression (p53): significantly upregulated p53 protein expression
- fold lesser toxicity to human normal HHL-5 cells than to U87 cells ([3]; HHL-5 IC50 versus U87 IC50): 2 fold
- IC50 [3]: 1110 ± 80 nM

SMILES: CC(C)=NNC(=N)SCc1c2ccccc2c(C)c2ccccc12 [13f]
- inhibition at 10 µM [1, 9]: 65.1%
- fold potency improvement in U87 cells compared with aryl-derived compounds ([1]; U87 inhibition rate at 10 µM): 3–4 fold

SMILES: Cc1c2ccccc2c(CSc2ncc[nH]2)c2ccccc12 [13g]
- inhibition at 10 µM [1, 9]: 41.2%

SMILES: Cc1c2ccccc2c(CSC2=NC(=O)CC(=O)N2)c2ccccc12 [13h]
- inhibition at 10 µM [1, 9]: 0.7%

SMILES: CCOC(=O)c1cnc(SCc2c3ccccc3c(C)c3ccccc23)[nH]1 [13i]
- inhibition at 10 µM [1, 9]: 31.2%

SMILES: Cc1c2ccccc2c(CSC(=N)Nc2ccccc2)c2ccccc12 [13j]
- inhibition at 10 µM [1, 9]: 13.3%

SMILES: Cc1c2ccccc2c(CS/C(=N\c2ccccc2)Nc2ccccc2)c2ccccc12 [13k]
- inhibition at 10 µM [1, 9]: 28.1%

SMILES: CCCCCCNC(=N)SCc1c2ccccc2c(C)c2ccccc12 [13l]
- inhibition at 10 µM [1, 9]: 86.7%
- fold potency improvement in U87 cells compared with aryl-derived compounds ([1]; U87 inhibition rate at 10 µM): 3–4 fold

- IC50 ([1]; 72 h, MTT): 1240 ± 240 nM
- IC50 [1, 10]: < 2000 nM
- IC50 [2]: 4560 ± 30 nM
- IC50 [4]: 3640 ± 270 nM
SMILES: CCc1c2ccccc2c(CSC(=N)N)c2ccccc12 [14a]
- inhibition at 10 µM [1, 9]: 79%
- IC50 [3]: 1510 ± 160 nM

- IC50 ([1]; 72 h, MTT): 1350 ± 100 nM
- IC50 [1, 10]: < 2000 nM
- IC50 [2]: 4550 ± 270 nM
- IC50 [4]: 2660 ± 190 nM
SMILES: CCc1c2ccccc2c(CSC(=N)NC)c2ccccc12 [14b]
- inhibition at 10 µM [1, 9]: 94.7%
- IC50 [3]: 1620 ± 130 nM

SMILES: CCc1c2ccccc2c(CSC(=N)N(C)N)c2ccccc12 [14c]
- inhibition at 10 µM [1, 9]: 83.6%

SMILES: CCc1c2ccccc2c(CSC(=N)NC(=N)N)c2ccccc12 [14d]
- inhibition at 10 µM [1, 9]: 17.3%
- fold decrease in anti-glioma activity ([1]; U87 inhibition rate at 10 µM): 3~4 fold

SMILES: CCc1c2ccccc2c(CSC(=N)NC(C)=O)c2ccccc12 [14e]
- inhibition at 10 µM [1, 9]: 19.3%
- fold decrease in anti-glioma activity ([1]; U87 inhibition rate at 10 µM): 3~4 fold

SMILES: CCCCCCNC(=N)SCc1c2ccccc2c(CC)c2ccccc12 [14f]
- inhibition at 10 µM [1, 9]: 43.6%
- fold decrease in anti-glioma activity ([1]; U87 inhibition rate at 10 µM): 3~4 fold

SMILES: CCc1c2ccccc2c(CSC(=N)Nc2ccc(C(F)(F)F)cc2)c2ccccc12 [14g]
- inhibition at 10 µM [1, 9]: 28%
- fold decrease in anti-glioma activity ([1]; U87 inhibition rate at 10 µM): 3~4 fold

SMILES: CCCc1c2ccccc2c(CSC(=N)N)c2ccccc12 [14h]
- inhibition at 10 µM [1, 9]: 64.6%

SMILES: CNC(=N)SCc1c2ccccc2cc2ccccc12 [14i]
- U87 (% Inhib. @ 10 µM) ([1]; 10 µM, 72 h, MTT, triplicates): 76.4%
- inhibition at 10 µM [1, 9]: 83%

SMILES: N=C(NN)SCc1c2ccccc2cc2ccccc12 [14j]
- inhibition at 10 µM [1, 9]: 11.8%

SMILES: CC(C)=NNC(=N)SCc1c2ccccc2cc2ccccc12 [14k]
- inhibition at 10 µM [1, 9]: 14.2%

SMILES: CC(=O)NC(=N)SCc1c2ccccc2cc2ccccc12 [14l]
- inhibition at 10 µM [1, 9]: 0.7%

SMILES: N=C(N)SCc1c2ccccc2c(Br)c2ccccc12 [14m]
- inhibition at 10 µM [1, 9]: 36.8%

- IC50 ([1]; 72 h, MTT): 1840 ± 120 nM
- IC50 [1, 10]: < 2000 nM
- IC50 [2]: 7600 ± 1370 nM
- IC50 [4]: 7740 ± 810 nM
SMILES: CNC(=N)SCc1c2ccccc2c(Br)c2ccccc12 [14n]
- inhibition at 10 µM [1, 9]: 86.5%
- IC50 [3]: 1670 ± 160 nM
- fold reduction in anti-cervical cancer activity ([4]; bromo versus methyl and ethyl analogs (14a, 14b, XI-011)): 1–2 fold

SMILES: N=C(NN)SCc1c2ccccc2c(Br)c2ccccc12 [14o]
- inhibition at 10 µM [1, 9]: 50.7%

SMILES: N=C(NN)SCc1c2ccccc2nc2ccccc12 [14p]
- inhibition at 10 µM [1, 9]: 19%

SMILES: N=C(N)SCc1c2ccccc2nc2ccccc12 [14q]
- inhibition at 10 µM [1, 9]: 12.5%

SMILES: CCCCCCNC(=N)SCc1c2ccccc2nc2ccccc12 [14r]
- inhibition at 10 µM [1, 9]: 2.1%

SMILES: N=C(N)SC1c2ccccc2CCc2ccccc21 [14s]
- inhibition at 10 µM [1, 9]: 6.9%
- fold less potency than XI-011 ([1]; U87 inhibition rate at 10 µM): approximately 12 fold

- IC50 [1, 10]: 440 ± 60 nM
- IC50 [2]: 1320 ± 160 nM
- IC50 [4]: 540 ± 50 nM
SMILES: COc1cccc2c1C(=O)c1c(O)c3c(c(O)c1C2=O)C[C@@](O)(C(=O)CO)C[C@@H]3O[C@H]1C[C@H](N)[C@H](O)[C@H](C)O1 [DOX, doxorubicin, reference compound]
- inhibition at 10 µM [1, 9]: 81.1%
- IC50 [3]: 320 ± 20 nM

SMILES: CCOc1cc(/C=C2\C(=O)N(c3ccccc3)N=C2C)cc(Cl)c1OCC(=O)OC [SJ-172550]
- IC50 (MDM4 [8]): 870 nM

- IC50 [1, 10]: 690 ± 20 nM
- IC50 [2]: 4870 ± 300 nM
- IC50 [4]: 1510 ± 60 nM
SMILES: Cc1c2ccccc2c(CSC(=N)N)c2ccccc12 [XI-011, (10-methylanthracen-9-yl)methyl carbamimidothioate, reference compound]
- apoptosis (U87 cells [5]; U87, 1 µM): 23%
- inhibition at 10 µM [1, 9]: 91.8%
- IC50 [3]: 550 ± 30 nM

Source: paper PMC11123991, “Novel 9-Methylanthracene Derivatives as p53 Activators for the Treatment of Glioblastoma Multiforme” (Molecules, 2024)
